# Data: PubChem BioAssay (NCI)
#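 48-hour exposure; five concentrations; linearly interpolated endpoints. At the GI50, growth is halved. TGI: concentration producing complete growth inhibition.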
# Assays:
# Assay in all cases: NCI anticancer screen, dose series, 48 h
# 786-0 renal = test system: 786-0 renal
# A498 renal = test system: A498 renal
# A549 NSCLC = test system: A549 NSCLC
# ACHN renal = test system: ACHN renal
# BT-549 breast = test system: BT-549 breast
# CAKI-1 renal = test system: CAKI-1 renal
# CCRF-CEM leukemia = test system: CCRF-CEM leukemia
# COLO 205 colon = test system: COLO 205 colon
# DU-145 prostate = test system: DU-145 prostate
# EKVX NSCLC = test system: EKVX NSCLC
# HCT-116 colon = test system: HCT-116 colon
# HL-60(TB) leukemia = test system: HL-60(TB) leukemia
# HOP-62 NSCLC = test system: HOP-62 NSCLC
# HOP-92 NSCLC = test system: HOP-92 NSCLC
# HS 578T breast = test system: HS 578T breast
# HT29 colon = test system: HT29 colon
# IGROV1 ovarian = test system: IGROV1 ovarian
# K-562 leukemia = test system: K-562 leukemia
# KM12 colon = test system: KM12 colon
# LOX IMVI melanoma = test system: LOX IMVI melanoma
# M14 melanoma = test system: M14 melanoma
# MALME-3M melanoma = test system: MALME-3M melanoma
# MDA-MB-231 breast = test system: MDA-MB-231 breast
# MDA-MB-435 = test system: MDA-MB-435
# MOLT-4 leukemia = test system: MOLT-4 leukemia
# NCI-H226 lung = test system: NCI-H226 lung
# NCI-H23 lung = test system: NCI-H23 lung
# NCI-H460 lung = test system: NCI-H460 lung
# NCI-H522 lung = test system: NCI-H522 lung
# NCI/ADR-RES ovarian = test system: NCI/ADR-RES ovarian
# OVCAR-4 ovarian = test system: OVCAR-4 ovarian
# OVCAR-5 ovarian = test system: OVCAR-5 ovarian
# OVCAR-8 ovarian = test system: OVCAR-8 ovarian
# PC-3 prostate = test system: PC-3 prostate
# RPMI-8226 leukemia = test system: RPMI-8226 leukemia
# RXF 393 renal = test system: RXF 393 renal
# SF-268 CNS = test system: SF-268 CNS
# SF-295 CNS = test system: SF-295 CNS
# SF-539 CNS = test system: SF-539 CNS
# SK-MEL-28 melanoma = test system: SK-MEL-28 melanoma
# SK-MEL-5 melanoma = test system: SK-MEL-5 melanoma
# SK-OV-3 ovarian = test system: SK-OV-3 ovarian
# SN12C renal = test system: SN12C renal
# SNB-19 CNS = test system: SNB-19 CNS
# SNB-75 CNS = test system: SNB-75 CNS
# SR leukemia = test system: SR leukemia
# T-47D breast = test system: T-47D breast
# TK-10 renal = test system: TK-10 renal
# U251 CNS = test system: U251 CNS
# UACC-257 melanoma = test system: UACC-257 melanoma
# UACC-62 melanoma = test system: UACC-62 melanoma
# UO-31 renal = test system: UO-31 renal
compound,measurement,setting,value
O=C1c2c(c3c4cc(Br)ccc4[nH]c3c3ccc4ccccc4c23)C(=O)N1CCN1CCNCC1,GI50,786-0 renal,2.94 µM
same,TGI,786-0 renal,9.44 µM
same,GI50,A498 renal,16.1 µM
same,TGI,A498 renal,29.8 µM
same,GI50,A549 NSCLC,2.6 µM
same,TGI,A549 NSCLC,9.13 µM
same,GI50,ACHN renal,11.1 µM
same,TGI,ACHN renal,27.4 µM
same,GI50,BT-549 breast,13.1 µM
same,TGI,BT-549 breast,30.7 µM
same,GI50,CAKI-1 renal,10.5 µM
same,TGI,CAKI-1 renal,24.6 µM
same,GI50,CCRF-CEM leukemia,0.947 µM
same,TGI,CCRF-CEM leukemia,6.8 µM
same,GI50,COLO 205 colon,6.51 µM
same,TGI,COLO 205 colon,27.7 µM
same,GI50,DU-145 prostate,2.09 µM
same,TGI,DU-145 prostate,4.53 µM
same,GI50,EKVX NSCLC,1.98 µM
same,TGI,EKVX NSCLC,4.96 µM
same,GI50,HCT-116 colon,1.73 µM
same,TGI,HCT-116 colon,3.13 µM
same,GI50,HL-60(TB) leukemia,6.78 µM
same,TGI,HL-60(TB) leukemia,26 µM
same,GI50,HOP-62 NSCLC,6.28 µM
same,TGI,HOP-62 NSCLC,26.9 µM
same,GI50,HOP-92 NSCLC,14.4 µM
same,TGI,HOP-92 NSCLC,28.7 µM
same,GI50,HS 578T breast,17.9 µM
same,TGI,HS 578T breast,52.4 µM
same,GI50,HT29 colon,1.64 µM
same,TGI,HT29 colon,3.11 µM
same,GI50,IGROV1 ovarian,11.8 µM
same,TGI,IGROV1 ovarian,33.7 µM
same,GI50,K-562 leukemia,1.28 µM
same,TGI,K-562 leukemia,3.05 µM
same,GI50,KM12 colon,3.21 µM
same,TGI,KM12 colon,11.6 µM
same,GI50,LOX IMVI melanoma,2.06 µM
same,TGI,LOX IMVI melanoma,5.3 µM
same,GI50,M14 melanoma,10.7 µM
same,TGI,M14 melanoma,25.7 µM
same,GI50,MALME-3M melanoma,14.3 µM
same,TGI,MALME-3M melanoma,36.3 µM
same,GI50,MDA-MB-231 breast,2.34 µM
same,TGI,MDA-MB-231 breast,6.32 µM
same,GI50,MDA-MB-435,3.12 µM
same,TGI,MDA-MB-435,10.8 µM
same,GI50,MOLT-4 leukemia,1.04 µM
same,TGI,MOLT-4 leukemia,4.14 µM
same,GI50,NCI-H226 lung,10.8 µM
same,TGI,NCI-H226 lung,39.5 µM
same,GI50,NCI-H23 lung,2.96 µM
same,TGI,NCI-H23 lung,12.7 µM
same,GI50,NCI-H460 lung,2.38 µM
same,TGI,NCI-H460 lung,10.2 µM
same,GI50,NCI-H522 lung,1.67 µM
same,TGI,NCI-H522 lung,7.46 µM
same,GI50,NCI/ADR-RES ovarian,3.66 µM
same,TGI,NCI/ADR-RES ovarian,26.7 µM
same,GI50,OVCAR-4 ovarian,12.3 µM
same,TGI,OVCAR-4 ovarian,33.9 µM
same,GI50,OVCAR-5 ovarian,2.88 µM
same,TGI,OVCAR-5 ovarian,9.14 µM
same,GI50,OVCAR-8 ovarian,1.96 µM
same,TGI,OVCAR-8 ovarian,5 µM
same,GI50,PC-3 prostate,2.91 µM
same,TGI,PC-3 prostate,11 µM
same,GI50,RPMI-8226 leukemia,2.19 µM
same,TGI,RPMI-8226 leukemia,5.26 µM
same,GI50,RXF 393 renal,6.97 µM
same,TGI,RXF 393 renal,23.4 µM
same,GI50,SF-268 CNS,12.3 µM
same,TGI,SF-268 CNS,36.3 µM
same,GI50,SF-295 CNS,13.9 µM
same,TGI,SF-295 CNS,32.9 µM
same,GI50,SF-539 CNS,1.92 µM
same,TGI,SF-539 CNS,3.82 µM
same,GI50,SK-MEL-28 melanoma,15.7 µM
same,TGI,SK-MEL-28 melanoma,35.1 µM
same,GI50,SK-MEL-5 melanoma,18.1 µM
same,TGI,SK-MEL-5 melanoma,38 µM
same,GI50,SK-OV-3 ovarian,16.2 µM
same,TGI,SK-OV-3 ovarian,30.8 µM
same,GI50,SN12C renal,13.5 µM
same,TGI,SN12C renal,36.6 µM
same,GI50,SNB-19 CNS,1.8 µM
same,TGI,SNB-19 CNS,3.79 µM
same,GI50,SNB-75 CNS,18.3 µM
same,TGI,SNB-75 CNS,35.5 µM
same,GI50,SR leukemia,0.507 µM
same,TGI,SR leukemia,2.79 µM
same,GI50,T-47D breast,4.3 µM
same,TGI,T-47D breast,26 µM
same,GI50,TK-10 renal,19.8 µM
same,TGI,TK-10 renal,38.1 µM
same,GI50,U251 CNS,1.49 µM
same,TGI,U251 CNS,2.86 µM
same,GI50,UACC-257 melanoma,12.9 µM
same,TGI,UACC-257 melanoma,28.4 µM
same,GI50,UACC-62 melanoma,12.8 µM
same,TGI,UACC-62 melanoma,31.3 µM
same,GI50,UO-31 renal,11.2 µM
same,TGI,UO-31 renal,27.2 µM
